Source: patent publication US10658848B2, “Materials for use with aqueous redox flow batteries and related methods and systems” (Massachusetts Institute of Technology, priority 2014, dated 2020)

Assay: Repeated CV cycling of 5 mM quinoxaline in 1 M potassium chloride
Assay type: physicochemical
Procedure: Electrochemical experiments were carried out using other electrolytes.

In the case of `c1ccc2nccnc2c1` [quinoxaline], the “peak currents on repeated cycling” value (5 mM quinoxaline in 1 M potassium chloride with 10 mM potassium hydroxide) is reported as “no decrease in peak currents was observed after 100 or 200 cycles” and the “cathodic and anodic currents on repeated cycling” value (5 mM quinoxaline in 1 M potassium chloride, no added base, glassy carbon electrode) is reported as “decreased with repeated cycling”.
